Data published in patent US20110172296A1, “MODULATION OF TRANSFORMING GROWTH FACTOR-BETA 1 EXPRESSION” (priority 2010, published 2011).
“And” between values parts separate entries of the source, which are not always exact repeats. Identical values can stand only once. In the oligonucleotide strings, read from the 5' end, every base follows the letter of its sugar. An asterisk marks phosphorothioate; unmarked linkages are phosphodiester. Other units and linkages are bracketed, terminal groups are in braces. A string of capitals states the bases alone. e = 2'-O-(2-methoxyethyl) (MOE); [5mC] = 5-methylcytosine; d = 2'-deoxy (DNA)

Tested on: human TGF-beta1 mRNA
Test: Antisense inhibition of human TGF-beta1 mRNA in HuVEC cells, single 10 nM dose, Lipofectamine 2000 (Example 2)
Assay type: cell-based
Conditions: for % inhibition: 10 nM oligonucleotide, HuVEC, relative to untreated control cells, gapmers targeted to SEQ ID NO: 2; for inhibition of a TGF-beta1 mRNA: threshold lists of Oligo IDs, 10 nM
Method in brief: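 Percent inhibition relative to untreated controls, from qRT-PCR of mRNA corrected for total RNA (RIBOGREEN). Cells were exposed 4 h to 10 nM phosphorothioate 2-13-5 MOE gapmers with Lipofectamine 2000 at 5,000 cells/well. RNA was harvested after roughly 24 h recovery.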

Substance | % inhibition [%] | inhibition of a TGF-beta1 mRNA
414078 (antisense eT*eG*dG*dG*d[5mC]*dA*dA*dT*dT*dA*dT*dT*dG*dA*dA*eT*eA*eA*eA*eA) [compound 414078] | 18 | –
414079 (antisense eG*eT*d[5mC]*dT*dT*dG*dG*dT*dT*dA*dT*d[5mC]*dA*d[5mC]*dT*eA*eT*eG*eT*e[5mC]) [compound 414079] | 62 | 60%
414080 (antisense eT*eT*dG*dA*d[5mC]*d[5mC]*dA*dA*dG*dA*d[5mC]*dA*dG*dA*dT*eG*eA*eG*e[5mC]*eT) [compound 414080] | 54 | –
414081 (antisense eG*e[5mC]*dT*dT*dG*dG*dG*dA*d[5mC]*dT*d[5mC]*dA*dG*d[5mC]*dA*eT*eT*eG*eA*e[5mC]) [compound 414081] | 49 | –
414082 (antisense eG*eA*dG*dA*dG*dG*dG*dA*dA*dG*d[5mC]*d[5mC]*dA*dG*dT*e[5mC]*eT*eG*eA*eG) [compound 414082] | 19 | –
414083 (antisense eA*eA*d[5mC]*d[5mC]*dT*dG*dG*dA*dG*d[5mC]*dA*d[5mC]*d[5mC]*dT*dG*eG*eT*e[5mC]*eA*eG) [compound 414083] | 42 | –
414084 (antisense eT*e[5mC]*dA*dG*d[5mC]*d[5mC]*d[5mC]*dA*dA*dG*d[5mC]*dA*d[5mC]*dA*dG*e[5mC]*eA*eG*e[5mC]*eA) [compound 414084] | 75 | 60% and 65% and 70% and 75%
414085 (antisense e[5mC]*eT*dA*dA*dA*dG*dG*dA*dG*dA*d[5mC]*dA*dG*dA*dT*eG*e[5mC]*eT*e[5mC]*eA) [compound 414085] | 66 | 60% and 65%
414086 (antisense eT*eT*dG*dA*dA*dT*dT*d[5mC]*d[5mC]*dA*dA*d[5mC]*dA*dA*dT*e[5mC]*eA*e[5mC]*eA*eG) [compound 414086] | 54 | –
414087 (antisense eG*eT*dG*dA*d[5mC]*d[5mC]*dT*dT*d[5mC]*d[5mC]*dA*dA*d[5mC]*dT*dT*eT*eG*eA*eA*eT) [compound 414087] | 77 | 60% and 65% and 70% and 75%
414088 (antisense eT*eT*d[5mC]*dT*dA*dG*d[5mC]*dA*dT*dT*d[5mC]*dT*dA*dG*dA*eA*eT*e[5mC]*e[5mC]*e[5mC]) [compound 414088] | 66 | 60% and 65%
414089 (antisense eA*eA*dT*dT*d[5mC]*dT*dA*dG*d[5mC]*dA*dT*dT*d[5mC]*dT*dA*eG*eA*eA*eT*e[5mC]) [compound 414089] | 18 | –
414090 (antisense eG*eA*dT*dT*d[5mC]*d[5mC]*dA*dA*dT*dG*dT*dT*dT*d[5mC]*dA*eG*e[5mC]*eT*eT*eT) [compound 414090] | 80 | 60% and 65% and 70% and 75% and 80%
414091 (antisense eG*eG*dT*dA*dT*d[5mC]*d[5mC]*dA*d[5mC]*dA*dA*dT*dT*dG*dG*e[5mC]*e[5mC]*eA*eG*eT) [compound 414091] | 64 | 60%
414092 (antisense eG*eA*dG*dA*dT*dA*d[5mC]*d[5mC]*dA*dA*dT*dA*dT*dT*d[5mC]*eT*eG*e[5mC]*eT*eT) [compound 414092] | 86 | 60% and 65% and 70% and 75% and 80% and 85%
414093 (antisense eA*eA*d[5mC]*dA*dT*dT*d[5mC]*d[5mC]*dA*dA*d[5mC]*dA*d[5mC]*dT*dG*eA*eG*eT*eT*e[5mC]) [compound 414093] | 68 | 60% and 65%
414094 (antisense eT*e[5mC]*dA*dA*dG*dA*dG*dG*dT*dT*d[5mC]*dA*dA*dA*d[5mC]*eT*eG*eA*e[5mC]*eA) [compound 414094] | 67 | 60% and 65%
414095 (antisense eA*eA*dT*dT*d[5mC]*d[5mC]*dA*dG*dT*dA*dT*dG*d[5mC]*d[5mC]*dA*eG*eT*eA*eT*eT) [compound 414095] | 46 | –
414096 (antisense e[5mC]*e[5mC]*dA*dA*d[5mC]*d[5mC]*dT*dT*dT*dG*dA*dG*dG*dA*dT*e[5mC]*eT*eT*eG*eG) [compound 414096] | 74 | 60% and 65% and 70%
414097 (antisense eG*eA*dA*dT*d[5mC]*d[5mC]*dA*dA*d[5mC]*dA*dT*dT*dT*d[5mC]*dA*eG*e[5mC]*eT*eT*eT) [compound 414097] | 74 | 60% and 65% and 70%
414098 (antisense eA*eA*dG*dG*dG*dA*dG*dG*dA*dA*dT*dA*dA*dG*dG*eT*e[5mC]*eA*eG*eA) [compound 414098] | 70 | 60% and 65% and 70%
414099 (antisense eG*eT*dA*dG*dG*d[5mC]*dT*dA*dT*dT*dA*dA*dT*dA*dG*eT*eT*eA*eA*eG) [compound 414099] | 37 | –

Substance | % inhibition [%] | inhibition of a TGF-beta1 mRNA
414100 (antisense eT*eT*d[5mC]*d[5mC]*dA*d[5mC]*dT*d[5mC]*dA*dA*dT*dG*dA*dA*dT*eG*eG*eA*eA*eA) [compound 414100] | 48 | –
414101 (antisense eG*eA*d[5mC]*dA*dG*d[5mC]*dA*dA*dG*dA*d[5mC]*d[5mC]*dA*dA*d[5mC]*eA*e[5mC]*e[5mC]*eT*eT) [compound 414101] | 70 | 60% and 65% and 70%
414103 (antisense eA*eT*dT*d[5mC]*dA*dA*dG*dT*dA*dA*dG*dG*dT*d[5mC]*dT*eA*e[5mC]*eA*e[5mC]*eA) [compound 414103] | 58 | –
414104 (antisense eA*eG*dG*dA*dT*dT*d[5mC]*dA*dA*dG*dT*dA*dA*dG*dG*eT*e[5mC]*eT*eA*e[5mC]) [compound 414104] | 61 | 60%
414105 (antisense eG*eA*dT*dA*dT*d[5mC]*dT*dA*dG*dA*dG*dG*dA*dA*dT*eA*eT*e[5mC]*eT*eA) [compound 414105] | 27 | –
414106 (antisense eA*eT*dT*d[5mC]*d[5mC]*dT*dT*dG*dA*dT*dA*dT*d[5mC]*dT*dA*eG*eA*eG*eG*eA) [compound 414106] | 74 | 60% and 65% and 70%
414107 (antisense eT*eT*d[5mC]*dA*dA*dA*dT*dG*dT*dA*dT*d[5mC]*dT*d[5mC]*dT*eA*eA*eT*eT*eA) [compound 414107] | 7 | –
414108 (antisense e[5mC]*eA*d[5mC]*dA*dT*dG*d[5mC]*dA*dA*dT*d[5mC]*d[5mC]*dA*d[5mC]*d[5mC]*eG*eT*eG*eT*eT) [compound 414108] | 61 | 60%
414109 (antisense eG*eG*d[5mC]*d[5mC]*dA*dA*dT*dT*dT*d[5mC]*d[5mC]*dA*dT*dT*dG*e[5mC]*eA*eT*e[5mC]*eT) [compound 414109] | 80 | 60% and 65% and 70% and 75% and 80%
414110 (antisense eG*eA*dA*d[5mC]*dA*dA*dA*dT*dT*dT*dT*d[5mC]*d[5mC]*dT*dA*eT*eG*eA*eA*eA) [compound 414110] | 14 | –
414111 (antisense eT*eT*dG*dA*dA*d[5mC]*dA*dA*dG*d[5mC]*d[5mC]*dG*dT*d[5mC]*dT*eA*eG*eG*eT*eG) [compound 414111] | 81 | 60% and 65% and 70% and 75% and 80%
414112 (antisense eG*eG*d[5mC]*dA*dG*d[5mC]*dA*dT*d[5mC]*dA*d[5mC]*d[5mC]*dT*dG*dG*eG*eA*eA*e[5mC]*eT) [compound 414112] | 57 | –
414113 (antisense eT*e[5mC]*dT*dG*dG*dG*dA*dA*dA*dA*dA*dG*dA*dG*dT*e[5mC]*e[5mC]*eT*eG*eG) [compound 414113] | 79 | 60% and 65% and 70% and 75%
414114 (antisense eT*eT*dT*d[5mC]*d[5mC]*dA*dA*dG*dA*dG*d[5mC]*d[5mC]*dA*d[5mC]*dA*eG*eA*eA*eG*e[5mC]) [compound 414114] | 46 | –
414115 (antisense eT*eT*dT*dT*d[5mC]*d[5mC]*dA*dT*dA*dA*dT*dA*dA*dA*dG*eG*eA*eA*eT*eT) [compound 414115] | 18 | –
414116 (antisense e[5mC]*eT*dG*dG*dA*dT*dG*dA*dG*dA*dG*dT*dT*dT*dA*e[5mC]*eG*eG*eG*e[5mC]) [compound 414116] | 83 | 60% and 65% and 70% and 75% and 80%
414117 (antisense eA*eG*dT*dG*d[5mC]*dA*dA*dT*dA*d[5mC]*dG*dG*dT*dA*dT*eT*eG*e[5mC]*eA*eG) [compound 414117] | 81 | 60% and 65% and 70% and 75% and 80%
414118 (antisense eA*eA*dT*dG*d[5mC]*d[5mC]*d[5mC]*dA*dA*dG*dT*d[5mC]*d[5mC]*dT*d[5mC]*eA*e[5mC]*e[5mC]*eG*eT) [compound 414118] | 73 | 60% and 65% and 70%
414119 (antisense eT*eG*dT*dG*d[5mC]*dA*dA*d[5mC]*dA*dA*dA*dT*dG*dT*dT*eT*eA*eT*eT*eG) [compound 414119] | 43 | –
414120 (antisense e[5mC]*eA*d[5mC]*dA*d[5mC]*d[5mC]*d[5mC]*dT*dG*dG*dA*dA*d[5mC]*dA*dT*eA*e[5mC]*eA*eA*eA) [compound 414120] | 40 | –
414121 (antisense eG*e[5mC]*dA*dA*dT*dG*d[5mC]*dT*dT*dA*dA*dG*dA*d[5mC]*dA*eA*eG*e[5mC]*e[5mC]*eT) [compound 414121] | 62 | 60%
